The text below walks through data of patent publication US5972950A, “1,2-diarylmethylene derivatives, their methods of preparation and their uses in therapeutics” (Laboratories UPSA, priority 1996, dated 1999).

Assay [1] concerns carrageenan-induced paw oedema. Put plainly: oedema with carrageenan (anti-inflammatory activity) in rats. It is filed as in vivo. Conditions: rat, oral, oedema volume 3 hours after carrageenan, n=6. The method, then:
Anti-Inflammatory Activity
The anti-inflammatory activity is evaluated in rats by the test of oedema with carrageenan. The product is administered orally at a rate of 2.5 ml/100 g (n=6 animals per dose) 2 hours 30 minutes after a water overload taken orally (2.5 ml/ 100 g). One hour after administration of the product, the oedema is induced by plantar subcutaneous injection of aqueous 2% carrageenan solution.

In assay [2] the test system is pain response in kaolin arthritis. As to the kind of experiment: arthritis with kaolin (analgesic activity) in rats. It is filed as in vivo. The note with it: rat, oral, pain response 5 hours 30 minutes after administration, n=10. As for the experimental part:
The analgesic activity is evaluated in rats by the test of arthritis with kaolin. Thirty minutes after intra-articular administration of an aqueous 10% suspension of kaolin, the product is administered orally at a rate of 1 ml/100 g (n=10 animals per dose).

The subject of another assay is COX-2. Put plainly: inhibition of COX-2 enzymatic activity (PGE2 by EIA). Format: biochemical. The note with it: purified enzyme from ewe placenta, mean ± standard deviation, 4 determinations. The method, then: (§1) Inhibition Of The COX-1 and COX-2 Enzymatic Activities The molecule studied is preincubated for 10 minutes at 25° C. with 2 U of COX-1 (purified enzyme from ram seminal vesicles) or 1 U of COX-2 (purified enzyme from ewe placenta). Arachidonic acid (6 μM for COX-1, 4, μM for COX-2) is added to the reaction medium and incubation is carried out for 5 minutes at 25° C. When incubation has ended, the enzymatic reaction is stopped by the addition of 1 N HCl and the PGE2 produced is determined by EIA. The results are expressed as the percentage inhibition of the COX-1 and COX-2 enzymatic activities and correspond to mean (±) standard deviations from the average of 4 determinations.

The subject of a further assay is COX-1. As to the kind of experiment: inhibition of COX-1 enzymatic activity (PGE2 by EIA). The note with it: purified enzyme from ram seminal vesicles, mean ± standard deviation, 4 determinations. It is filed as biochemical. As for the experimental part:
as §1

As for `CCOC(=O)/C(CCO)=C(/c1ccc(S(C)(=O)=O)cc1)c1cc(Cl)cc(Cl)c1` [Example 14, Ethyl (Z)-3-(3,5-dichlorophenyl)-3-(4-methanesulphonylphenyl)-2-(2-hydroxyethyl)prop-2-enoate], in assay [1] (30 mg/kg), the “Anti-inflammatory activity % inhibition” value was 28.9 ± 4.5%. In assay [2] (30 mg/kg), the “Analgesic activity % inhibition” value stood at 45.8 ± 10.9%. In addition, the “% inhibition of COX-2 activity” value in the assay on COX-2 (10^-5 M) was determined as 80 ± 2%; with COX-2 (10^-7 M), 16 ± 9%. For the same compound, the “% inhibition of COX-1 activity” value with COX-1 (10^-5 M) and in the assay with COX-1 (10^-7 M) was 0 ± 0% each time.
As to `CS(=O)(=O)c1ccc(/C(=C(\CCO)C(=O)[O-])c2ccc(Cl)c(Cl)c2)cc1.[Na+]` [Example 27, Sodium (Z)-3-(3,4-dichlorophenyl)-3-(4-methanesulphonylphenyl)-2-(2-hydroxyethyl)prop-2-enoate], the “Anti-inflammatory activity % inhibition” value in assay [1] (100 mg/kg) came out at 32.4 ± 8.2%. Moreover, in assay [2] (100 mg/kg), the “Analgesic activity % inhibition” value is listed as 63.6 ± 13.2%.
